In patent US4575498A, “Method for restoring depleted purine nucleotide pools” (priority 1983, dated 1986):

Assays:
[1] = test system: postischemic myocardium; assay: Myocardial nucleotide and creatine phosphate content, coronary occlusion and reperfusion; format: in vivo, dogs
Method: (§1) Catheters were placed in the left atrium and aorta, and a snare positioned around the left anterior descending coronary artery in 15 open-chest dogs. Regional myocardial blood flow was measured and transmural tissue samples were obtained using known techniques. Blood flow measurements and tissue samples were obtained prior to and just before release of a 12-minute coronary occlusion. The chest was closed and the animals allowed to awaken. Twenty-four hours later, the animals were anesthetized, the chest opened, blood flow measured, and tissue samples obtained. No hemodynamic measurements were made on the animals.
(§2) In seven animals, 200 mM AICAriboside (Sigma Chemical Co.) was infused into the left atrial catether at either 14 μmol/min (n=2) or 37 μmol/min (n=5) beginning with coronary occlusion and continuing for 24 hours. Eight control animals were infused with an equal volume of saline over 24 hours.
Nucleotide and creatine phosphate analyses were performed by high performance liquid chromatography on acid extracts of the tissue as previously described. Nucleotide analysis is described in Example 1, and creatine phosphate analysis is described in Juengling and Kammermeier, Anal. Biochem., 102, 358-361 (1980).
(§3) All comparisons between AICAriboside and saline treated animals were done by unpaired analyses.

[2] = test system: skeletal muscle; assay: AICAriboside infusion: nucleotide, nucleoside and base content of skeletal (gastrocnemius) muscle biopsies; format: in vivo, mongrel dogs; parameters: AMP / ADP / ATP / TAN / IMP / Hyp (hypoxanthine): unit not given beside the values; details: for TAN: total adenine nucleotide
[3] = test system: myocardium; assay: Regional myocardial blood flow, coronary occlusion and reperfusion; format: in vivo, dogs; details: any time point
Method: as §1, §2, §3

[4] = endo, 24 Hr postischemic (first column)
[5] = endo, 24 Hr postischemic (second column so headed)
[6] = epi, 24 Hr postischemic (first column)
[7] = epi, 24 Hr postischemic (second column so headed)
[8] = epi, 24 Hr postischemic (second column so headed), P < 0.05 vs saline
[9] = 2 min postinfusion, P < 0.05 vs control
[10] = 30 min of AICAriboside infusion
[11] = 30 min of AICAriboside infusion, P < 0.05 vs control

In the case of NC(=O)c1ncn([C@@H]2O[C@H](CO)[C@@H](O)[C@H]2O)c1N [AICAriboside, 5-amino-4-imidazolecarboxamide riboside], the GTP content restoration ([1]; 24 hours of reperfusion, saline 82% (epi), 78% (endo) of nonischemic levels) is reported as “restored to nonischemic levels”, the ADP [1, 4] is reported as 0.78 ± 0.09 μmol/g wet wt and the AMP [1, 4] is reported as 0.056 ± 0.019 μmol/g wet wt. For the same compound, the “CP (creatine phosphate)” value [1, 4] was 7.8 ± 1.1 μmol/g wet wt, the CTP [1, 4] was 0.052 ± 0.005 μmol/g wet wt and the NAD [1, 4] was 0.57 ± 0.02 μmol/g wet wt. For the same compound, the UTP [1, 4] was 0.121 ± 0.013 μmol/g wet wt, the IMP ([1]; endo, 24 Hr postischemic (first column), P < 0.05 vs saline) was 0.027 ± 0.007 μmol/g wet wt and the ADP [1, 5] was 0.75 ± 0.07 μmol/g wet wt. The AMP [1, 5] was 0.041 ± 0.005 μmol/g wet wt, the “CP (creatine phosphate)” value [1, 5] was 6.9 ± 0.5 μmol/g wet wt and the CTP [1, 5] was 0.056 ± 0.004 μmol/g wet wt. The NAD [1, 5] was 0.60 ± 0.05 μmol/g wet wt, the UTP [1, 5] was 0.106 ± 0.011 μmol/g wet wt and the IMP ([1]; endo, 24 Hr postischemic (second column so headed), P < 0.05 vs saline) was 0.017 ± 0.004 μmol/g wet wt. The ADP ([1]; endo, occlusion) was 0.86 ± 0.06 μmol/g wet wt, the AMP ([1]; endo, occlusion) was 0.089 ± 0.012 μmol/g wet wt and the “CP (creatine phosphate)” value ([1]; endo, occlusion) was 2.0 ± 0.3 μmol/g wet wt. The CTP ([1]; endo, occlusion) was 0.016 ± 0.003 μmol/g wet wt, the IMP ([1]; endo, occlusion) was 0.008 ± 0.002 μmol/g wet wt and the NAD ([1]; endo, occlusion) was 0.45 ± 0.02 μmol/g wet wt. For the same compound, the UTP ([1]; endo, occlusion) was 0.055 ± 0.007 μmol/g wet wt, the “increase in ATP content” value ([1]; endo, previously ischemic region, 24 hours of reperfusion, saline 21%) was 63% and the “ATP content vs saline-treated” value ([1]; epi and endo, previously ischemic region, 24 hours of reperfusion, P<0.001) was “greater in the AICAriboside group”. For the same compound, the ADP [1, 6] was 0.73 ± 0.05 μmol/g wet wt, the AMP [1, 6] was 0.048 ± 0.009 μmol/g wet wt and the “CP (creatine phosphate)” value [1, 6] was 7.1 ± 0.5 μmol/g wet wt. For the same compound, the CTP [1, 6] was 0.051 ± 0.004 μmol/g wet wt, the NAD [1, 6] was 0.56 ± 0.03 μmol/g wet wt and the UTP [1, 6] was 0.104 ± 0.121 μmol/g wet wt. The IMP ([1]; epi, 24 Hr postischemic (first column), P < 0.05 vs saline) was 0.025 ± 0.007 μmol/g wet wt, the ADP [1, 7] was 0.70 ± 0.05 μmol/g wet wt and the AMP [1, 7] was 0.036 ± 0.005 μmol/g wet wt. The “CP (creatine phosphate)” value [1, 7] was 7.8 ± 0.5 μmol/g wet wt, the CTP [1, 7] was 0.051 ± 0.005 μmol/g wet wt and the UTP [1, 7] was 0.096 ± 0.008 μmol/g wet wt. It also gave an IMP [1, 8] of 0.015 ± 0.004 μmol/g wet wt, an NAD [1, 8] of 0.55 ± 0.02 μmol/g wet wt and an ADP ([1]; epi, occlusion) of 0.99 ± 0.11 μmol/g wet wt. For the same compound, the AMP ([1]; epi, occlusion) was 0.135 ± 0.045 μmol/g wet wt, the “CP (creatine phosphate)” value ([1]; epi, occlusion) was 2.9 ± 0.7 μmol/g wet wt and the CTP ([1]; epi, occlusion) was 0.023 ± 0.003 μmol/g wet wt. It also gave an IMP ([1]; epi, occlusion) of 0.007 ± 0.001 μmol/g wet wt, an NAD ([1]; epi, occlusion) of 0.47 ± 0.03 μmol/g wet wt and a UTP ([1]; epi, occlusion) of 0.061 ± 0.007 μmol/g wet wt. The “increase in ATP content” value ([1]; epi, previously ischemic region, 24 hours of reperfusion, saline 2%) was 41%, the “GTP content vs saline” value ([1]; epicardium and endocardium of previously ischemic region, 24 hours of reperfusion, P<0.003) was “greater in the AICAriboside group” and the “AMP or ADP content vs saline” value ([1]; postischemic region) was “no detectable differences”. The “UTP, CTP, or NAD^+ content vs saline” value ([1]; postischemic region) was “no statistically significant differences”, the “total adenine nucleotide content (ATP+ADP+AMP) vs saline” value ([1]; postischemic region) was “greater in the AICAriboside group” and the “creatine phosphate content restoration” value ([1]; postischemic regions, both groups) was “restored to preocclusion levels”. For the same compound, the “creatine phosphate fall at end of occlusion” value ([1]; vs saline) was “fell to a comparable extent”, the “percentage drop in ATP during ischemia” value ([1]; vs saline) was “comparable in both groups” and the AMP ([2]; 2 min postinfusion) was 0.016 ± 0.002. For the same compound, the “Hyp (hypoxanthine)” value ([2]; 2 min postinfusion) was 0.022 ± 0.009, the “Ino (inosine)” value ([2]; 2 min postinfusion) was 0.024 ± 0.008 and the ADP [2, 9] was 0.65 ± 0.06. For the same compound, the ATP [2, 9] was 4.68 ± 0.45, the IMP [2, 9] was 0.046 ± 0.012 and the ADP ([2]; 22 min postinfusion) was 0.59 ± 0.03. The AMP ([2]; 22 min postinfusion) was 0.014 ± 0.003, the ATP ([2]; 22 min postinfusion) was 4.34 ± 0.21 and the “Hyp (hypoxanthine)” value ([2]; 22 min postinfusion) was 0.021 ± 0.008. The “Ino (inosine)” value ([2]; 22 min postinfusion) was 0.024 ± 0.011, the IMP ([2]; 22 min postinfusion, P < 0.05 vs control) was 0.045 ± 0.016 and the ADP [2, 10] was 0.53 ± 0.04. For the same compound, the AMP [2, 10] was 0.016 ± 0.009, the ATP [2, 10] was 3.92 ± 0.23 and the “Hyp (hypoxanthine)” value [2, 11] was 0.024 ± 0.007. For the same compound, the IMP [2, 11] was 0.050 ± 0.012, the “Ino (inosine)” value [2, 11] was 0.035 ± 0.009 and the ADP ([2]; 60 min postinfusion) was 0.56 ± 0.05. For the same compound, the AMP ([2]; 60 min postinfusion) was 0.018 ± 0.007, the ATP ([2]; 60 min postinfusion) was 3.60 ± 0.41 and the “Hyp (hypoxanthine)” value ([2]; 60 min postinfusion) was 0.041 ± 0.017. For the same compound, the “Ino (inosine)” value ([2]; 60 min postinfusion) was 0.055 ± 0.031, the IMP ([2]; 60 min postinfusion, P < 0.05 vs control) was 0.043 ± 0.015 and the “increase in IMP content” value ([2]; AICAriboside infusion) was 6-7 fold. The guanine nucleotide content ([2]; not statistically significant) was “tended to increase”, the “content of inosine and hypoxanthine” value ([2]; throughout infusion and up to 60 min thereafter) was “consistently elevated” and the “content of NAD^+” value ([2]; throughout infusion, did not vary) was 0.32 ± 0.04 µmol/g. For the same compound, the TAN [2, 9] was 5.34 ± 0.51, the TAN ([2]; 22 min postinfusion) was 4.94 ± 0.23 and the TAN [2, 10] was 4.47 ± 0.27. The TAN ([2]; 60 min postinfusion) was 4.18 ± 0.44 and the “regional flow vs saline group” value [3] was “no differences”.
